These results are taken from patent publication US11608335B2, “Somatostatin modulators and uses thereof” (CRINETICS PHARMACEUTICALS, INC., priority 2018, dated 2023).

Molecules are shown by their SMILES.

Chain of human somatostatin receptor subtype 5 (P35346 whole entry): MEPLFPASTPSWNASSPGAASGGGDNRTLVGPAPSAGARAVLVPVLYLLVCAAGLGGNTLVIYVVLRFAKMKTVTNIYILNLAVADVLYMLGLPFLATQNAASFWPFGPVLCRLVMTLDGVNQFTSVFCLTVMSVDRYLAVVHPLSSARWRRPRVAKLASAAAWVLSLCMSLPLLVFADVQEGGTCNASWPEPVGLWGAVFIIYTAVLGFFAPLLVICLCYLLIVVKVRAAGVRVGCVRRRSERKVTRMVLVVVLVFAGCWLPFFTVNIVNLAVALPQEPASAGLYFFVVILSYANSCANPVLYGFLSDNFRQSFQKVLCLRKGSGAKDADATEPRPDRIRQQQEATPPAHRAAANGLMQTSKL

This assay has as its target human somatostatin receptor subtype 5 (Homo sapiens, UniProt P35346). Description: cAMP assay for SST5R (inhibition of cAMP via human SST5 receptor). On the technique in general: Cyclic AMP is a second messenger, typically raised through Gs and lowered through Gi signalling.
`CS(=O)(=O)c1cccc(-c2cncc(-c3nc4cc(F)cc(F)c4[nH]3)c2N2CC[C@H](N)C2)c1` [Compound 2-93, (3S)-1-[3-(4,6-difluoro-1H-1,3-benzodiazol-2-yl)-5-(3-methanesulfonylphenyl)pyridin-4-yl]pyrrolidin-3-amine]: the EC50 (in general, the concentration at which the effect is half-maximal) is 100 to 1000 nM.
The result for `N#Cc1cc(F)cc(-c2cncc(-c3nc4cc(F)cc(F)c4[nH]3)c2N2CC[C@H](N)C2)c1` [Compound 2-87, 3-{4-[(3S)-3-aminopyrrolidin-1-yl]-5-(4,6-difluoro-1H-1,3-benzodiazol-2-yl)pyridin-3-yl}-5-fluorobenzonitrile] reads less than 10 nM; that for `Cc1cccc(-c2cncc(-c3nc4cc(F)cc(F)c4[nH]3)c2N2CC(C(C)N)C2)c1F` (stereo not shown) [Compound 1-76, 1-{1-[3-(4,6-difluoro-1H-1,3-benzodiazol-2-yl)-5-(2-fluoro-3-methylphenyl)pyridin-4-yl]azetidin-3-yl}ethan-1-amine], less than 10 nM.
The molecule `COc1c(F)cccc1-c1cncc(-c2nc3cc(F)cc(F)c3[nH]2)c1N1CC(C(C)N)C1` (stereo not shown) [Compound 1-73, 1-{1-[3-(4,6-difluoro-1H-1,3-benzodiazol-2-yl)-5-(3-fluoro-2-methoxyphenyl)pyridin-4-yl]azetidin-3-yl}ethan-1-amine] displayed an EC50 of less than 10 nM.
The figure for `CC(N)C1CN(c2c(-c3cc(F)cc(C(F)(F)F)c3)cncc2-c2nc3c(F)cc(F)cc3[nH]2)C1` (stereo not shown) [Compound 1-63, 1-{1-[3-(4,6-difluoro-1H-1,3-benzodiazol-2-yl)-5-[3-fluoro-5-(trifluoromethyl)phenyl]pyridin-4-yl]azetidin-3-yl}ethan-1-amine] is less than 10 nM; for `N#Cc1cccc(-c2cncc(-c3nc4c(F)cccc4[nH]3)c2N2CC(N)C(C(F)(F)F)C2)c1` (stereo not shown) [Compound 2-33, 3-{4-[3-amino-4-(trifluoromethyl)pyrrolidin-1-yl]-5-(4-fluoro-1H-1,3-benzodiazol-2-yl)pyridin-3-yl}benzonitrile] it is 100 to 1000 nM; for `Cc1cc(F)cc(-c2cncc(-c3nc4cc(Cl)cc(F)c4[nH]3)c2N2CC(CN)C2)c1` [Compound 1-18, 1-{1-[3-(6-chloro-4-fluoro-1H-1,3-benzodiazol-2-yl)-5-(3-fluoro-5-methylphenyl)pyridin-4-yl]azetidin-3-yl}methanamine] it is 10 to 100 nM.
The figure for `NC(=O)c1cc(F)cc(-c2cncc(-c3nc4cccc(F)c4[nH]3)c2N2CC[C@H](N)C2)c1` [Compound 2-72, 3-{4-[(3S)-3-aminopyrrolidin-1-yl]-5-(4-fluoro-1H-1,3-benzodiazol-2-yl)pyridin-3-yl}-5-fluorobenzamide] is less than 10 nM; for `CN(C)c1ccc(-c2cncc(-c3nc4cccc(F)c4[nH]3)c2N2CCC(C)(N)C2)cn1` (stereo not shown) [Compound 2-14, 4′-(3-amino-3-methylpyrrolidin-1-yl)-5′-(4-fluoro-1H-1,3-benzodiazol-2-yl)-N,N-dimethyl-[3,3′-bipyridin]-6-amine] it is 100 to 1000 nM.
The result for `CC1(N)CCN(c2c(-c3cccc(-n4ccnc4)c3)cncc2-c2nc3cccc(F)c3[nH]2)C1` (stereo not shown) [Compound 2-53, 1-[3-(4-fluoro-1H-1,3-benzodiazol-2-yl)-5-[3-(1H-imidazol-1-yl)phenyl]pyridin-4-yl]-3-methylpyrrolidin-3-amine] reads 10 to 100 nM.
On to `Cc1cccc2[nH]c(-c3cncc(-c4ccnc(C(N)=O)c4)c3N3CC[C@](C)(N)C3)nc12` [Compound 2-156, 4-[(3S)-3-amino-3-methylpyrrolidin-1-yl]-5-(4-methyl-1H-1,3-benzodiazol-2-yl)-[3,4′-bipyridine]-2′-carboxamide], for which the EC50 is less than 10 nM.
The result for `N#Cc1cccc(-c2cncc(-c3nc4cccc(F)c4[nH]3)c2N2C[C@H](CO)[C@@H](N)C2)c1` (racemic) [Compound 2-89, 3-{4-[trans-3-amino-4-(hydroxymethyl)pyrrolidin-1-yl]-5-(4-fluoro-1H-1,3-benzodiazol-2-yl)pyridin-3-yl}benzonitrile] reads 10 to 100 nM; that for `N#Cc1cc(Cl)cc(-c2cncc(-c3nc4cccc(F)c4[nH]3)c2N2CC[C@H](N)C2)c1` [Compound 2-5, 3-{4-[(3S)-3-aminopyrrolidin-1-yl]-5-(4-fluoro-1H-1,3-benzodiazol-2-yl)pyridin-3-yl}-5-chlorobenzonitrile], 10 to 100 nM.
The figure for `N#Cc1cc(F)cc(-c2cncc(-c3nc4cccc(F)c4[nH]3)c2N2CCC(N)(C(F)(F)F)C2)c1` (stereo not shown) [Compound 2-78, 3-{4-[3-amino-3-(trifluoromethyl)pyrrolidin-1-yl]-5-(4-fluoro-1H-1,3-benzodiazol-2-yl)pyridin-3-yl}-5-fluorobenzonitrile] is 100 to 1000 nM; for `NCC1CN(c2c(-c3cc(F)c(F)c(F)c3)cncc2-c2nc3cc(F)cc(F)c3[nH]2)C1` [Compound 1-48, 1-{1-[3-(4,6-difluoro-1H-1,3-benzodiazol-2-yl)-5-(3,4,5-trifluorophenyl)pyridin-4-yl]azetidin-3-yl}methanamine] it is less than 10 nM; for `Cc1ccc(F)c(-c2cncc(-c3nc4cc(F)cc(F)c4[nH]3)c2N2CC(CN)C2)c1` [Compound 1-45, 1-{1-[3-(4,6-difluoro-1H-1,3-benzodiazol-2-yl)-5-(2-fluoro-5-methylphenyl)pyridin-4-yl]azetidin-3-yl}methanamine] it is 10 to 100 nM.
Molecule `N#Cc1cc(-c2cncc(-c3nc4c(F)ccc(F)c4[nH]3)c2N2CC[C@H](N)C2)ccc1C(F)(F)F` [Compound 2-48, 5-{4-[(3S)-3-aminopyrrolidin-1-yl]-5-(4,7-difluoro-1H-1,3-benzodiazol-2-yl)pyridin-3-yl}-2-(trifluoromethyl)benzonitrile] showed an EC50 of 10 to 100 nM.
Consider `NCC1CN(c2c(-c3cc(Cl)cc(Cl)c3)cncc2-c2nc3cc(F)cc(F)c3[nH]2)C1` [Compound 1-60, 1-{1-[3-(3,5-dichlorophenyl)-5-(4,6-difluoro-1H-1,3-benzodiazol-2-yl)pyridin-4-yl]azetidin-3-yl}methanamine], for which the half-maximal effective concentration (EC50) was less than 10 nM.
The result for `Cc1ccc(F)cc1-c1cncc(-c2nc3cc(F)cc(F)c3[nH]2)c1N1CC(CN)C1` [Compound 1-46, 1-{1-[3-(4,6-difluoro-1H-1,3-benzodiazol-2-yl)-5-(5-fluoro-2-methylphenyl)pyridin-4-yl]azetidin-3-yl}methanamine] reads 10 to 100 nM.
The figure for `Cc1ccc(F)c2nc(-c3cncc(-c4cc(F)cc(C(N)=O)c4)c3N3CC[C@H](N)C3)[nH]c12` [Compound 2-96, 3-{4-[(3S)-3-aminopyrrolidin-1-yl]-5-(7-fluoro-4-methyl-1H-1,3-benzodiazol-2-yl)pyridin-3-yl}-5-fluorobenzamide] is less than 10 nM.
The result for `Cc1ccc(-c2cncc(-c3nc4cc(F)cc(F)c4[nH]3)c2N2CC(CN)C2)cc1F` [Compound 1-55, 1-{1-[3-(4,6-difluoro-1H-1,3-benzodiazol-2-yl)-5-(3-fluoro-4-methylphenyl)pyridin-4-yl]azetidin-3-yl}methanamine] reads 10 to 100 nM; that for `Cc1cccc2nc(-c3cncc(-c4ccc(F)c(C#N)c4)c3N3CC[C@H](N)C3)n(C)c12` [Compound 2-134, 5-{4-[(3S)-3-aminopyrrolidin-1-yl]-5-(1,7-dimethyl-1H-1,3-benzodiazol-2-yl)pyridin-3-yl}-2-fluorobenzonitrile], less than 10 nM; that for `COc1ccc2[nH]c(-c3cncc(-c4cc(C)cc(F)c4)c3N3CC(CN)C3)nc2c1` [Compound 1-12, 1-{1-[3-(3-fluoro-5-methylphenyl)-5-(5-methoxy-1H-1,3-benzodiazol-2-yl)pyridin-4-yl]azetidin-3-yl}methanamine], 100 to 1000 nM.
As for `Cc1cccc(-c2cncc(-c3nc4cc(F)cc(F)c4[nH]3)c2N2CC(CN)C2)c1F` [Compound 1-67, 1-{1-[3-(4,6-difluoro-1H-1,3-benzodiazol-2-yl)-5-(2-fluoro-3-methylphenyl)pyridin-4-yl]azetidin-3-yl}methanamine], the EC50 was 100 to 1000 nM.
The molecule `N#Cc1cccc(-c2cncc(-c3nc4c(F)cccc4[nH]3)c2N2C[C@@H](N)[C@H](C(N)=O)C2)c1` (racemic) [Compound 2-69, trans-4-amino-1-[3-(3-cyanophenyl)-5-(4-fluoro-1H-1,3-benzodiazol-2-yl)pyridin-4-yl]pyrrolidine-3-carboxamide] returned an EC50 greater than 1000 nM.
The result for `COc1cc(Cl)cc(-c2cncc(-c3nc4c(F)cc(F)cc4[nH]3)c2N2CC(CN)C2)c1` [Compound 1-59, 1-{1-[3-(3-chloro-5-methoxyphenyl)-5-(4,6-difluoro-1H-1,3-benzodiazol-2-yl)pyridin-4-yl]azetidin-3-yl}methanamine] reads less than 10 nM; that for `N#Cc1c(F)cccc1-c1cncc(-c2nc3c(F)ccc(F)c3[nH]2)c1N1CC[C@H](N)C1` [Compound 2-40, 2-{4-[(3S)-3-aminopyrrolidin-1-yl]-5-(4,7-difluoro-1H-1,3-benzodiazol-2-yl)pyridin-3-yl}-6-fluorobenzonitrile], 10 to 100 nM; that for `CS(=O)(=O)c1cc(F)cc(-c2cncc(-c3nc4cccc(F)c4[nH]3)c2N2CC[C@H](N)C2)c1` [Compound 2-92, (3S)-1-[3-(4-fluoro-1H-1,3-benzodiazol-2-yl)-5-(3-fluoro-5-methanesulfonylphenyl)pyridin-4-yl]pyrrolidin-3-amine], 10 to 100 nM.
The result for `Cc1cc(F)cc(-c2cncc(-c3nc4cccnc4[nH]3)c2N2CC(CN)C2)c1` [Compound 1-23, 1-{1-[3-(3-fluoro-5-methylphenyl)-5-{1H-imidazo[4,5-b]pyridin-2-yl}pyridin-4-yl]azetidin-3-yl}methanamine] reads 100 to 1000 nM; that for `Cc1cccc(-c2cncc(-c3nc4c(F)cc(F)cc4[nH]3)c2N2CC(CN)C2)c1` [Compound 1-29, 1-{1-[3-(4,6-difluoro-1H-1,3-benzodiazol-2-yl)-5-(3-methylphenyl)pyridin-4-yl]azetidin-3-yl}methanamine], less than 10 nM; that for `N#Cc1ccc(-c2cncc(-c3nc4cccc(F)c4[nH]3)c2N2CC[C@H](N)C2)cc1` [Compound 2-42, 4-{4-[(3S)-3-aminopyrrolidin-1-yl]-5-(4-fluoro-1H-1,3-benzodiazol-2-yl)pyridin-3-yl}benzonitrile], 100 to 1000 nM.
